Columns and labels:
[1] = biological target: GDP-bound NRAS wild-type protein (Homo sapiens, UniProt P01111); test: Binding to NRAS by surface plasmon resonance (SPR), KD and KD ratio to KRAS; conditions: ratio of KD for GDP-bound NRAS wild-type protein to KD for KRAS
Method in brief: (§1)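 Measured at 30°C: SPR with GDP-loaded, E. coli-expressed biotin-Avi RAS captured (~100–300 RU), ascending 75 s compound injections, HBS pH 7.4 with GDP, MgCl2, 4% DMSO. KD from 1:1 fit.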

[2] = biological target: HRAS wild-type protein (Homo sapiens, UniProt P01112); test: Binding to HRAS by surface plasmon resonance (SPR), KD and KD ratio to KRAS; conditions: ratio of KD for HRAS wild-type protein to KD for KRAS
Method in brief: as §1

[3] = system: human lung cancer strain NCI-H441; test: NCI-H441 cell proliferation inhibitory activity (CellTiter-Glo, 4 days); assay type: cell-based; conditions: NCI-H441 cells, 4 days, read-out: NCl-H441 IC50
Method in brief: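 Signal came from […] measured per well once the reagent was added. Beforehand, cells were cultured at 37°C and 5% carbon dioxide on a compound series serially diluted in dimethyl sulfoxide.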

[4] = biological target: GDP-bound KRAS wild-type protein (Homo sapiens, UniProt P01116); test: Binding to KRAS by surface plasmon resonance (SPR), dissociation constant KD; conditions: Single Cycle Kinetics
Method in brief: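 Single-cycle kinetics on GDP-loaded biotin-Avi RAS captured to ~100–300 RU; 75 s ascending injections, 100 µL/min, 30°C. HBS pH 7.4 + 10 mM MgCl2/10 µM GDP/4% DMSO. 1:1 fit, KD.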

GDP-bound NRAS wild-type protein, sequence (P01111 whole entry): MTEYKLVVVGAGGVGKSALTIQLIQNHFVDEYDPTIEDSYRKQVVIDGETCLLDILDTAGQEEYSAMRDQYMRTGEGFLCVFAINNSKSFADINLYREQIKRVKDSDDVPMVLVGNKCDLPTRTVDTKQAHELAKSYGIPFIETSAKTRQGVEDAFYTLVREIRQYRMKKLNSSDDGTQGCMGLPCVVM
HRAS wild-type protein, sequence (P01112 whole entry): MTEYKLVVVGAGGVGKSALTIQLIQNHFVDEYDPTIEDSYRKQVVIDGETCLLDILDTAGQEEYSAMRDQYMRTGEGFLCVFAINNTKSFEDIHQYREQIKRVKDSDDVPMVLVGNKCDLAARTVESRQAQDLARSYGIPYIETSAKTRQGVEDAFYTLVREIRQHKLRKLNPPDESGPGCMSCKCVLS
GDP-bound KRAS wild-type protein, sequence (P01116 1-188 isoform P01116-2): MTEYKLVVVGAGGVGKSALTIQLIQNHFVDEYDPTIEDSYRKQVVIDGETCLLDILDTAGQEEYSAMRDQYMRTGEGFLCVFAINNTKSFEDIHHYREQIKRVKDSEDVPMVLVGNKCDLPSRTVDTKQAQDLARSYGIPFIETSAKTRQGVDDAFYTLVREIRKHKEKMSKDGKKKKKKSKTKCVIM

Structure (SMILES)	NRAS /KRAS [1]	HRAS /KRAS [2]	IC50 [3] [nM]	Kd [4] [nM]
CCC[C@H]1C(=O)N[C@@H](C2CCCC2)C(=O)N(C)CC(=O)N(C)[C@H]2C/C=C\CCN(C2=O)[C@@H](Cc2ccc(C)cc2)C(=O)N(C)CC(=O)N[C@@H](CCc2cc(F)c(C(F)(F)F)c(F)c2)C(=O)N2CC3(CC3)C[C@H]2C(=O)N(C)C2(CCC2)C(=O)N(C)[C@@H](C2CCCC2)C(=O)N(C)[C@H](C(=O)N(C)C)CC(=O)N1C [PP3306]	A (a compound having 10 or more and less than 20 is denoted as A)	B (a compound having 3 or more and less than 10 is denoted as B)	9.3	0.052
CCC[C@H]1C(=O)N[C@@H](C2CCCC2)C(=O)N(C)CC(=O)N(C)[C@H]2C/C=C\CCN(C2=O)[C@@H](Cc2ccc(C(F)(F)F)cc2)C(=O)N(C)CC(=O)N[C@@H](CCc2cc(F)c(C(F)(F)F)c(F)c2)C(=O)N2CC3(CC3)C[C@H]2C(=O)N(C)C2(CCC2)C(=O)N(C)[C@@H]([C@@H](C)CC)C(=O)N(C)[C@H](C(=O)N(C)C)CC(=O)N1C [PP3307]	AA (a compound having 20 or more is denoted as AA)	A (a compound having 10 or more and less than 20 is denoted as A)	25.4	2.4
CCC[C@H]1C(=O)N[C@@H](C2CCCC2)C(=O)N(C)CC(=O)N(C)[C@H]2C/C=C\CCN(C2=O)[C@@H](Cc2ccc(C)cc2)C(=O)N(C)CC(=O)N[C@@H](CCc2cc(F)c(C(F)(F)F)c(F)c2)C(=O)N2CC3(CC3)C[C@H]2C(=O)N(C)C2(CCC2)C(=O)N(C)[C@@H](C(CC)CC)C(=O)N(C)[C@H](C(=O)N(C)C)CC(=O)N1C [PP3308]	A (a compound having 10 or more and less than 20 is denoted as A)	B (a compound having 3 or more and less than 10 is denoted as B)	17.2	0.18
CCC[C@H]1C(=O)N[C@@H](C2CCCC2)C(=O)N(C)CC(=O)N(C)[C@H]2C/C=C\CCN(C2=O)[C@@H](Cc2ccc(C(F)(F)F)cc2)C(=O)N(C)CC(=O)N[C@@H](CCc2ccc(C(F)(F)F)c(OC)c2)C(=O)N2CC3(CC3)C[C@H]2C(=O)N(C)C2(CCC2)C(=O)N(C)[C@@H]([C@@H](C)CC)C(=O)N(C)[C@H](C(=O)N(C)C)CC(=O)N1C [PP3315]	A (a compound having 10 or more and less than 20 is denoted as A)	A (a compound having 10 or more and less than 20 is denoted as A)	7.2	0.92
CCC[C@H]1C(=O)N[C@@H](C2CCCC2)C(=O)N(C)CC(=O)N(C)[C@H]2C/C=C\CCN(C2=O)[C@@H](Cc2ccc(C)cc2)C(=O)N(C)CC(=O)N[C@@H](CCc2ccc(C(F)(F)F)c(OC)c2)C(=O)N2CC3(CC3)C[C@H]2C(=O)N(C)C2(CCC2)C(=O)N(C)[C@@H](C(CC)CC)C(=O)N(C)[C@H](C(=O)N(C)C)CC(=O)N1C [PP3316]	A (a compound having 10 or more and less than 20 is denoted as A)	B (a compound having 3 or more and less than 10 is denoted as B)	11.2	0.17
CCC[C@H]1C(=O)N[C@@H](C2CCCC2)C(=O)N(C)CC(=O)N(C)[C@H]2C/C=C\CCN(C2=O)[C@@H](Cc2ccc(C(F)(F)F)cc2)C(=O)N(C)CC(=O)N[C@@H](CCc2ccc(C(F)(F)F)c(OC)c2)C(=O)N2CC3(CC3)C[C@H]2C(=O)N(C)C2(CCC2)C(=O)N(C)[C@@H](CC(C)(C)C)C(=O)N(C)[C@H](C(=O)N(C)C)CC(=O)N1C [PP3317]	B (a compound having 3 or more and less than 10 is denoted as B)	B (a compound having 3 or more and less than 10 is denoted as B)	2.5	0.069
CCC[C@H]1C(=O)N[C@@H](C2CCCC2)C(=O)N(C)CC(=O)N(C)[C@H]2C/C=C\CCN(C2=O)[C@@H](Cc2ccc(C)cc2)C(=O)N(C)CC(=O)N[C@@H](CCc2ccc(C(F)(F)F)c(OC)c2)C(=O)N2CC3(CC3)C[C@H]2C(=O)N(C)C2(CCC2)C(=O)N(C)[C@@H]([C@@H](C)CC)C(=O)N(C)[C@H](C(=O)N(C)C)CC(=O)N1C [PP3318]	A (a compound having 10 or more and less than 20 is denoted as A)	A (a compound having 10 or more and less than 20 is denoted as A)	6.5	0.26
CCC[C@H]1C(=O)N[C@@H](C2CCCC2)C(=O)N(C)CC(=O)N(C)[C@H]2C/C=C\CCN(C2=O)[C@@H](Cc2ccc(C)cc2)C(=O)N(C)CC(=O)N[C@@H](CCc2ccc(C(F)(F)F)c(OC)c2)C(=O)N2CC3(CC3)C[C@H]2C(=O)N(C)C2(CCC2)C(=O)N(C)[C@@H](CC(C)(C)C)C(=O)N(C)[C@H](C(=O)N(C)C)CC(=O)N1C [PP3320]	B (a compound having 3 or more and less than 10 is denoted as B)	B (a compound having 3 or more and less than 10 is denoted as B)	4.6	0.037
CCC[C@H]1C(=O)N[C@@H](C2CCCC2)C(=O)N(C)CC(=O)N(C)[C@H]2C/C=C\CCN(C2=O)[C@@H](Cc2ccc(C(F)(F)F)cc2)C(=O)N(C)CC(=O)N[C@@H](CCc2ccc(C(F)(F)F)c(Cl)c2)C(=O)N2CC3(CC3)C[C@H]2C(=O)N(C)C2(CCC2)C(=O)N(C)[C@@H](C(CC)CC)C(=O)N(C)[C@H](C(=O)N(C)C)CC(=O)N1C [PP3321]	AA (a compound having 20 or more is denoted as AA)	A (a compound having 10 or more and less than 20 is denoted as A)	8	0.85
CCC[C@H]1C(=O)N[C@@H](C2CCCC2)C(=O)N(C)CC(=O)N(C)[C@H]2C/C=C\CCN(C2=O)[C@@H](Cc2ccc(C)cc2)C(=O)N(C)CC(=O)N[C@@H](CCc2ccc(C(F)(F)F)c(Cl)c2)C(=O)N2CC3(CC3)C[C@H]2C(=O)N(C)C2(CCC2)C(=O)N(C)[C@@H](C2CCCC2)C(=O)N(C)[C@H](C(=O)N(C)C)CC(=O)N1C [PP3322]	A (a compound having 10 or more and less than 20 is denoted as A)	B (a compound having 3 or more and less than 10 is denoted as B)	7.9	0.063
CCC[C@H]1C(=O)N[C@@H](C2CCCC2)C(=O)N(C)CC(=O)N(C)[C@H]2C/C=C\CCN(C2=O)[C@@H](Cc2ccc(C(F)(F)F)cc2)C(=O)N(C)CC(=O)N[C@@H](CCc2ccc(C(F)(F)F)c(Cl)c2)C(=O)N2CC3(CC3)C[C@H]2C(=O)N(C)C2(CCC2)C(=O)N(C)[C@@H]([C@@H](C)CC)C(=O)N(C)[C@H](C(=O)N(C)C)CC(=O)N1C [PP3323]	AA (a compound having 20 or more is denoted as AA)	A (a compound having 10 or more and less than 20 is denoted as A)	9.2	1.3
CCC[C@H]1C(=O)N[C@@H](C2CCCC2)C(=O)N(C)CC(=O)N(C)[C@H]2C/C=C\CCN(C2=O)[C@@H](Cc2ccc(C)cc2)C(=O)N(C)CC(=O)N[C@@H](CCc2ccc(C(F)(F)F)c(Cl)c2)C(=O)N2CC3(CC3)C[C@H]2C(=O)N(C)C2(CCC2)C(=O)N(C)[C@@H](C(CC)CC)C(=O)N(C)[C@H](C(=O)N(C)C)CC(=O)N1C [PP3324]	AA (a compound having 20 or more is denoted as AA)	B (a compound having 3 or more and less than 10 is denoted as B)	16.4	0.23
CCC[C@H]1C(=O)N[C@@H](C2CCCC2)C(=O)N(C)CC(=O)N(C)[C@H]2C/C=C\CCN(C2=O)[C@@H](Cc2ccc(C)cc2)C(=O)N(C)CC(=O)N[C@@H](CCc2ccc(C(F)(F)F)c(Cl)c2)C(=O)N2CC3(CC3)C[C@H]2C(=O)N(C)C2(CCC2)C(=O)N(C)[C@@H]([C@@H](C)CC)C(=O)N(C)[C@H](C(=O)N(C)C)CC(=O)N1C [PP3326]	A (a compound having 10 or more and less than 20 is denoted as A)	A (a compound having 10 or more and less than 20 is denoted as A)	12.6	0.22
CCC[C@H]1C(=O)N[C@@H](C2CCCC2)C(=O)N(C)CC(=O)N(C)[C@H]2C/C=C\CCN(C2=O)[C@@H](Cc2ccc(C)cc2)C(=O)N(C)CC(=O)N[C@@H](CCc2ccc(C(F)(F)F)c(Cl)c2)C(=O)N2CC3(CC3)C[C@H]2C(=O)N(C)C2(CCC2)C(=O)N(C)[C@@H](CC(C)(C)C)C(=O)N(C)[C@H](C(=O)N(C)C)CC(=O)N1C [PP3328]	A (a compound having 10 or more and less than 20 is denoted as A)	B (a compound having 3 or more and less than 10 is denoted as B)	1.7	0.026
CCC[C@H]1C(=O)N[C@@H]([C@@H](C)CC)C(=O)N(C)CC(=O)N(C)[C@H]2C/C=C\CCN(C2=O)[C@@H](Cc2ccc(C)cc2)C(=O)N(C)CC(=O)N[C@@H](CCc2cc(F)c(C(F)(F)F)c(F)c2)C(=O)N2CC3(CC3)C[C@H]2C(=O)N(C)C2(CCC2)C(=O)N(C)[C@@H](C(CC)CC)C(=O)N(C)[C@H](C(=O)N(C)C)CC(=O)N1C [PP3329]	A (a compound having 10 or more and less than 20 is denoted as A)	B (a compound having 3 or more and less than 10 is denoted as B)	8.7	0.23
C=CC[C@H]1C(=O)N(C)[C@H](C(=O)N(C)C)CC(=O)N(C)[C@@H](CCC)C(=O)N[C@@H]([C@@H](C)CC)C(=O)N(C)CC(=O)N(C)[C@H]2C/C=C\CCN(C2=O)[C@@H](Cc2ccc(C(F)(F)F)cc2)C(=O)N(C)CC(=O)N[C@@H](CCc2ccc(C(F)(F)F)c(OC)c2)C(=O)N2C[C@H](OCC)C[C@H]2C(=O)N(C)C2(CCC2)C(=O)N1C [PP3330]	A (a compound having 10 or more and less than 20 is denoted as A)	A (a compound having 10 or more and less than 20 is denoted as A)	80.4	1.1

Source: EP4603105A1, “PHARMACEUTICAL COMPOSITION CONTAINING CYCLIC COMPOUND HAVING SELECTIVE KRAS INHIBITORY EFFECT AGAINST HRAS AND NRAS” (CHUGAI SEIYAKU KABUSHIKI KAISHA, priority 2022, dated 2024)
